Paper PMC7839234 (FASEB journal : official publication of the Federation of …, 2020)

Columns and labels:
Format in all cases: cell-based
SLC22A4 = target: T1, SLC22A4 (Homo sapiens, UniProt Q9H015); assay: radiolabelled uptake in transfected HEK293 Flp-In cells
T1 sequence (Q9H015 1-551): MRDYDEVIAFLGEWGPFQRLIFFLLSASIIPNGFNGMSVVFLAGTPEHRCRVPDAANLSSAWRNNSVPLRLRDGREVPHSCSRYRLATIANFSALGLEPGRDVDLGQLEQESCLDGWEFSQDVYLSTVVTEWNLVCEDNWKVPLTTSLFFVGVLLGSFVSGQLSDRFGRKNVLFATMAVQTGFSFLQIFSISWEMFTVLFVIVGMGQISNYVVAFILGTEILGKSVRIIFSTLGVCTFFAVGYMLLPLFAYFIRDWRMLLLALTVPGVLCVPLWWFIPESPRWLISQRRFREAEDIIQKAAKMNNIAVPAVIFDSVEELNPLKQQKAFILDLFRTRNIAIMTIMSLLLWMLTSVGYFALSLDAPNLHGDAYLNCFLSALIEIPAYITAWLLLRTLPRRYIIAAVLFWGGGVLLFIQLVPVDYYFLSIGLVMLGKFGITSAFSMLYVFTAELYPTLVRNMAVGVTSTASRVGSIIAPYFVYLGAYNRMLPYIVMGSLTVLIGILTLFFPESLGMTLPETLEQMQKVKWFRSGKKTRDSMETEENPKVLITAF

SLC22A15 [1] = target: T2, SLC22A15 (Homo sapiens, UniProt Q8IZD6)
T2 sequence (Q8IZD6 whole entry): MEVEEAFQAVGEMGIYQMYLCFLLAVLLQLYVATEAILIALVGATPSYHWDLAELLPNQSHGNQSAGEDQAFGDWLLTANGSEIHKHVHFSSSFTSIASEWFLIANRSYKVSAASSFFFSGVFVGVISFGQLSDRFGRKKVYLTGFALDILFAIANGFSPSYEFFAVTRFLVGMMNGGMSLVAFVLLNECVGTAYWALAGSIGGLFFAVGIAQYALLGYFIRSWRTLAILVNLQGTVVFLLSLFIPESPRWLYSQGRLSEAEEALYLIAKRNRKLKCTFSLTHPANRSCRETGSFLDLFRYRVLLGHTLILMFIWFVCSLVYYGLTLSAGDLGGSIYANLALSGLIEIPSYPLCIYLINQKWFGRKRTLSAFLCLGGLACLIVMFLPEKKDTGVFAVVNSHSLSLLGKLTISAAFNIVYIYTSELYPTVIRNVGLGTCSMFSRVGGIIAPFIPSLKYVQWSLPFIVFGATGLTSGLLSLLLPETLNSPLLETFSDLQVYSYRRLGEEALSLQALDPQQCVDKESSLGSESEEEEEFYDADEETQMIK

SLC22A15 [2] = target: T2, SLC22A15; assay: radiolabelled uptake in transfected HEK293 Flp-In cells

## C[N+](C)(C)[C@@H](Cc1c[nH]c(=S)[nH]1)C(=O)[O-] [ergothioneine]
SLC22A4
  radiolabelled uptake in transfected HEK293 Flp-In cells: only SLC22A4 and SLC22A15 showed significant uptake of ergothioneine over EV cells (Fig. 3B)

## O=S(=O)(O)CCN1CCN(CCO)CC1 [HEPES, 4-(2-hydroxyethyl)-1-piperazineethanesulfonic acid]
SLC22A15 [1]
  IC50: 5.8 ± 1.4 mM

## C[N+](C)(C)CC(=O)O [betaine]
SLC22A15 [2]
  radiolabelled uptake in transfected HEK293 Flp-In cells: highest fold-uptake over empty vector were the zwitterions: ergothioneine, carnosine and betaine
